Assay results reported in PMC5862990, “Dynamical origins of heat capacity changes in enzyme-catalysed reactions” (Nature Communications, 2018).

Target: T1, MalL (Bacillus subtilis, UniProt O06994)
T1 construct: wild-type, recombinant, monomeric
Assay: X-ray co-crystal structure
Assay type: binding
Conditions: co-crystallised with 0.5 mM ligand, 18 °C; active site; transition-state analogue

T1 sequence (O06994 whole entry): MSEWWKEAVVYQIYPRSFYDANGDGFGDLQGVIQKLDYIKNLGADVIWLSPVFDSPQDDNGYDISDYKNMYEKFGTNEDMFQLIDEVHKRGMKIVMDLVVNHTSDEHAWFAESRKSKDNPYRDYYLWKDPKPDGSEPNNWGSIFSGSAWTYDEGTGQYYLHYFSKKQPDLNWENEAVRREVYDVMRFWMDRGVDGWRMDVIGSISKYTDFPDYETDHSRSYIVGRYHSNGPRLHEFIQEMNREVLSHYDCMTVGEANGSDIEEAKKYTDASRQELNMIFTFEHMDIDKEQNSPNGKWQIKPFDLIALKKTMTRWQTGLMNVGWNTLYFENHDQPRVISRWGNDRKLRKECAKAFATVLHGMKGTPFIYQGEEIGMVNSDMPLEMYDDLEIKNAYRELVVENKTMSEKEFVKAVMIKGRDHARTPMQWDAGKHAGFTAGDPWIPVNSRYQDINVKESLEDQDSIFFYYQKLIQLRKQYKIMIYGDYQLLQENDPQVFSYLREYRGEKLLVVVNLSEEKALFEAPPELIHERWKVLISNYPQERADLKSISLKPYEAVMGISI

Q: Which X-ray co-crystal structure does the source give for OC[C@H]1NC[C@H](O)[C@@H](O)[C@@H]1O [1-deoxynojirimycin] here?
A: The X-ray co-crystal structure was “Coordinates and structure factors for MalL co-crystallised with 1-deoxynojirimycin are deposited in the PDB”.
